Measured values taken from PubChem BioAssay (NCI).
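48-hour exposure; five concentrations; linearly interpolated endpoints. GI50: concentration for 50% inhibition of growth. TGI: total growth inhibition.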

How the values were obtained:
Test in all cases: NCI anticancer screen, dose series, 48 h
[1] = test system: 786-0 renal
[2] = test system: A498 renal
[3] = test system: A549 NSCLC
[4] = test system: ACHN renal
[5] = test system: BT-549 breast
[6] = test system: CAKI-1 renal
[7] = test system: CCRF-CEM leukemia
[8] = test system: COLO 205 colon
[9] = test system: DU-145 prostate
[10] = test system: EKVX NSCLC
[11] = test system: HCC-2998 colon
[12] = test system: HCT-116 colon
[13] = test system: HCT-15 colon
[14] = test system: HL-60(TB) leukemia
[15] = test system: HOP-62 NSCLC
[16] = test system: HOP-92 NSCLC
[17] = test system: HS 578T breast
[18] = test system: HT29 colon
[19] = test system: IGROV1 ovarian
[20] = test system: K-562 leukemia
[21] = test system: KM12 colon
[22] = test system: LOX IMVI melanoma
[23] = test system: M14 melanoma
[24] = test system: MALME-3M melanoma
[25] = test system: MCF7 breast
[26] = test system: MDA-MB-231 breast
[27] = test system: MDA-MB-435
[28] = test system: MOLT-4 leukemia
[29] = test system: NCI-H226 lung
[30] = test system: NCI-H23 lung
[31] = test system: NCI-H460 lung
[32] = test system: NCI-H522 lung
[33] = test system: NCI/ADR-RES ovarian
[34] = test system: OVCAR-3 ovarian
[35] = test system: OVCAR-4 ovarian
[36] = test system: OVCAR-5 ovarian
[37] = test system: OVCAR-8 ovarian
[38] = test system: PC-3 prostate
[39] = test system: RPMI-8226 leukemia
[40] = test system: RXF 393 renal
[41] = test system: SF-268 CNS
[42] = test system: SF-295 CNS
[43] = test system: SF-539 CNS
[44] = test system: SK-MEL-2 melanoma
[45] = test system: SK-MEL-28 melanoma
[46] = test system: SK-MEL-5 melanoma
[47] = test system: SK-OV-3 ovarian
[48] = test system: SN12C renal
[49] = test system: SNB-19 CNS
[50] = test system: SNB-75 CNS
[51] = test system: SR leukemia
[52] = test system: SW-620 colon
[53] = test system: T-47D breast
[54] = test system: TK-10 renal
[55] = test system: U251 CNS
[56] = test system: UACC-257 melanoma
[57] = test system: UACC-62 melanoma
[58] = test system: UO-31 renal

## O=C1C(=O)c2c(nc3ccc(Cl)cn23)-c2ccccc21
[1]
  GI50: 775 nM
  TGI: 1820 nM
[2]
  GI50: 1640 nM
  TGI: 3110 nM
[3]
  GI50: 840 nM
[4]
  GI50: 591 nM
  TGI: 1880 nM
[5]
  GI50: 502 nM
  TGI: 1210 nM
[6]
  GI50: 477 nM
  TGI: 1040 nM
[7]
  GI50: 411 nM
  TGI: 3680 nM
[8]
  GI50: 1790 nM
  TGI: 3540 nM
[9]
  GI50: 223 nM
  TGI: 452 nM
[10]
  GI50: 1650 nM
  TGI: 3380 nM
[11]
  GI50: 2060 nM
  TGI: 3960 nM
[12]
  GI50: 311 nM
  TGI: 3730 nM
[13]
  GI50: 1080 nM
  TGI: 2730 nM
[14]
  GI50: 235 nM
[15]
  GI50: 666 nM
  TGI: 1660 nM
[16]
  GI50: 674 nM
  TGI: 1980 nM
[17]
  GI50: 239 nM
  TGI: 740 nM
[18]
  GI50: 3260 nM
  TGI: 19800 nM
[19]
  GI50: 646 nM
[20]
  GI50: 163 nM
  TGI: > 100000 nM
[21]
  GI50: 1780 nM
  TGI: 3890 nM
[22]
  GI50: 216 nM
  TGI: 498 nM
[23]
  GI50: 1300 nM
  TGI: 3050 nM
[24]
  GI50: 171 nM
  TGI: 368 nM
[25]
  GI50: 167 nM
  TGI: 356 nM
[26]
  GI50: 296 nM
  TGI: 3950 nM
[27]
  GI50: 183 nM
  TGI: 350 nM
[28]
  GI50: 308 nM
[29]
  GI50: 1650 nM
  TGI: 3490 nM
[30]
  GI50: 324 nM
  TGI: 1470 nM
[31]
  GI50: 538 nM
  TGI: 2310 nM
[32]
  GI50: 668 nM
  TGI: 2000 nM
[33]
  GI50: 344 nM
  TGI: 2040 nM
[34]
  GI50: 249 nM
  TGI: 908 nM
[35]
  GI50: 207 nM
  TGI: 463 nM
[36]
  GI50: 593 nM
  TGI: 1150 nM
[37]
  GI50: 471 nM
  TGI: 1910 nM
[38]
  GI50: 1200 nM
  TGI: 10600 nM
[39]
  GI50: 350 nM
  TGI: 2880 nM
[40]
  GI50: 564 nM
  TGI: 5610 nM
[41]
  GI50: 307 nM
  TGI: 1180 nM
[42]
  GI50: 1520 nM
  TGI: 3130 nM
[43]
  GI50: 189 nM
  TGI: 358 nM
[44]
  GI50: 432 nM
  TGI: 1610 nM
[45]
  GI50: 253 nM
  TGI: 557 nM
[46]
  GI50: 161 nM
  TGI: 309 nM
[47]
  GI50: 1710 nM
  TGI: 3310 nM
[48]
  GI50: 219 nM
  TGI: 567 nM
[49]
  GI50: 1320 nM
  TGI: 3000 nM
[50]
  GI50: 1250 nM
  TGI: 2610 nM
[51]
  GI50: 348 nM
  TGI: 1440 nM
[52]
  GI50: 292 nM
  TGI: 1030 nM
[53]
  GI50: 394 nM
  TGI: 1600 nM
[54]
  GI50: 1800 nM
  TGI: 3590 nM
[55]
  GI50: 274 nM
  TGI: 721 nM
[56]
  GI50: 284 nM
  TGI: 803 nM
[57]
  GI50: 285 nM
  TGI: 904 nM
[58]
  GI50: 306 nM
  TGI: 3470 nM

## C=CC(=O)N1CCN(c2ccc3cccc(NC(=O)c4cnc(C)cn4)c3n2)CC1
[1]
  GI50: 1770 nM
  TGI: > 100000 nM
[2]
  GI50: 388 nM
  TGI: 4190 nM
[3]
  GI50: 3770 nM
  TGI: > 100000 nM
[4]
  GI50: 656 nM
  TGI: > 100000 nM
[5]
  GI50: 2310 nM
  TGI: 21600 nM
[6]
  GI50: 555 nM
  TGI: 11500 nM
[7]
  GI50: 2080 nM
  TGI: 8290 nM
[8]
  GI50: 6260 nM
  TGI: 30000 nM
[9]
  GI50: 2450 nM
  TGI: > 100000 nM
[10]
  GI50: 12400 nM
  TGI: > 100000 nM
[11]
  GI50: 5320 nM
  TGI: 23600 nM
[12]
  GI50: 2360 nM
  TGI: 20100 nM
[13]
  GI50: 2080 nM
  TGI: 24600 nM
[14]
  GI50: 2200 nM
  TGI: 6610 nM
[15]
  GI50: 4240 nM
  TGI: > 100000 nM
[16]
  GI50: 2680 nM
  TGI: > 100000 nM
[17]
  GI50: 2280 nM
  TGI: 26300 nM
[18]
  GI50: 4050 nM
  TGI: > 100000 nM
[19]
  GI50: 1290 nM
  TGI: 15200 nM
[20]
  GI50: 3600 nM
  TGI: > 100000 nM
[21]
  GI50: 2840 nM
  TGI: 19000 nM
[22]
  GI50: 5140 nM
  TGI: 21400 nM
[23]
  GI50: 3050 nM
  TGI: 21300 nM
[24]
  GI50: 2890 nM
  TGI: 15900 nM
[25]
  GI50: 3440 nM
  TGI: > 100000 nM
[26]
  GI50: 3500 nM
  TGI: > 100000 nM
[27]
  GI50: 3670 nM
  TGI: 32900 nM
[28]
  GI50: 2180 nM
  TGI: 6660 nM
[29]
  GI50: 4440 nM
  TGI: 22300 nM
[30]
  GI50: 4490 nM
  TGI: 19500 nM
[31]
  GI50: 2510 nM
  TGI: 19700 nM
[32]
  GI50: 1990 nM
  TGI: 17800 nM
[33]
  GI50: 3190 nM
  TGI: > 100000 nM
[34]
  GI50: 2910 nM
  TGI: > 100000 nM
[35]
  GI50: 2660 nM
  TGI: > 100000 nM
[36]
  GI50: 16500 nM
  TGI: 81700 nM
[37]
  GI50: 3460 nM
  TGI: > 100000 nM
[38]
  GI50: 2860 nM
  TGI: 26500 nM
[39]
  GI50: 1500 nM
  TGI: 6520 nM
[40]
  GI50: 1450 nM
  TGI: 9460 nM
[41]
  GI50: 3670 nM
  TGI: 49200 nM
[42]
  GI50: 13500 nM
  TGI: > 100000 nM
[43]
  GI50: 3160 nM
  TGI: 15300 nM
[44]
  GI50: 3370 nM
  TGI: 27800 nM
[45]
  GI50: 7880 nM
  TGI: 20500 nM
[46]
  GI50: 4420 nM
  TGI: 16900 nM
[48]
  GI50: 2470 nM
  TGI: 16200 nM
[49]
  GI50: 5380 nM
  TGI: > 100000 nM
[50]
  GI50: 565 nM
  TGI: 9660 nM
[51]
  GI50: 838 nM
  TGI: 12700 nM
[52]
  GI50: 4850 nM
  TGI: 34900 nM
[53]
  GI50: 3480 nM
  TGI: > 100000 nM
[54]
  GI50: 1120 nM
  TGI: > 100000 nM
[55]
  GI50: 3850 nM
  TGI: 36400 nM
[56]
  GI50: 9210 nM
  TGI: 36700 nM
[57]
  GI50: 2460 nM
  TGI: 15600 nM
[58]
  GI50: 351 nM
  TGI: 5140 nM
